# Experimental data taken from patent US11655239B2 (SHANGHAI INSTITUTE OF MATERIAL MEDICA, CHINESE ACADEMY OF …, priority 2019, dated 2023).
# Molecular target: DDR2 (Homo sapiens (Human), UniProt Q16832)
# Assay: DDR2 enzyme activity test (ELISA)
# Type: biochemical
# Conditions: Table 3, chiral synthesis vs resolution; read-out: Molecular activity comparison (inhibitory activity against DDR2 enzyme)
# Experimental: The optical rotation and the inhibitory activity against DDR2 enzyme of the compounds S11-A and S11-B obtained by the resolution in Example 12, and the chirally synthesized compounds S11-A′ and S11-B′ in Example 13 were tested (referred to the operation in Effect example 1), and the results are shown in Table 3 below:
# Detection method: Enzyme-linked immunosorbent assay (ELISA)
# Test receptor tyrosine kinase: DDR2
# The kinase used in the experiment was obtained by our laboratory using the insect baculovirus expression system to express and purify the recombinant protein containing the protein kinase region; polyglutamic acid-tyrosine peptide segment [Poly(Glu, Tyr) 4:1] and sodium vanadate were purchased from Sigma; the anti-phosphorylated monoclonal antibody PY99 was purchased from Santa Cruz; horseradish peroxidase labeled goat anti-murine secondary antibody was purchased from Calbiochem; ATP and OPD were purchased from Sangon Biotech (Shanghai) Co., Ltd.; the remaining reagents were purchased from Sinopharm Chemical Reagent Co., Ltd. The reaction ELISA plate (#2592) was purchased from Corning. The full-wavelength microplate reader for experiment reading was a product of Molecular Device, model: SpectraMax 190; the experimental water was distilled water produced by Sinopharm Group.
# The compound was centrifuged at 12,000 g for 5 min, and DMSO was added to prepare a 10^-2M stock solution, which was vortexed evenly, then sonicated for 10 min and stored at −40° C. for later use. During the test, the compound was diluted with DMSO from the stock solution to 100 times the test concentration (the DMSO concentration in the system was 1%).
# 1) Enzyme reaction substrate Poly(Glu, Tyr) 4:1 was diluted to 20 μg/mL with potassium-free PBS (10 mM sodium phosphate buffer, 150 mM NaCl, pH 7.2-7.4), and the microtiter plate was coated with 125 μL/well and placed at 37° C. for 12-16 hours of reaction. The liquid in the well was discard. The plate was washed three times with T-PBS (potassium-free PBS containing 0.1% Tween-20, 200 μL/well), 5 minutes each time. The ELISA plate was dried in an oven at 37° C. for 1 to 2 hours.
# 2) Reaction buffer (50 mM HEPES pH 7.4, 50 mM MgCl2, 0.5 mM MnCl2, 0.2 mM Na3VO4, 1 mM DTT) diluted ATP solution (49 μL) was added to each well, 1 μL of the compound to be tested was added to each well, and then 50 μL of DDR2 kinase domain recombinant protein diluted in the reaction buffer was added to start the reaction. Two control wells without ATP were set in each experiment. The plate placed on a shaker (100 rpm) at 37° C. for 1 hour of reaction. The liquid in the well was discarded and the plate was washed three times with T-PBS.
# 3) Antibody PY99 dilution solution (the antibody was diluted 1:500 with T-PBS containing BSA 5 mg/mL) was added at 100 μL/well, and shaken on a shaker at 37° C. for 0.5 hour of reaction. The liquid in the well was discarded and the plate was washed three times with T-PBS.
# 4) Horseradish peroxidase labeled goat anti-murine secondary antibody dilution solution (the antibody is diluted 1:2000 with T-PBS containing BSA 5 mg/ml) was added at 100 μL/well, and shaken on a shaker at 37° C. for 0.5 hour of reaction. The liquid in the well was discarded and the plate was washed three times with T-PBS.
# 5) 2 mg/ml of OPD color developing solution [diluted with 0.1 M citric acid-sodium citrate buffer (pH=5.4) containing 0.03% H2O2] was added at 100 μL/well and reacted for 1 to 10 minutes at 25° C. in the dark.
# 6) 2M H2SO4 was added at 50 μL/well to stop the reaction, and a tunable wavelength microplate reader VERSAmax was used for reading at a wavelength of 490 nm.
# The IC50 value was obtained by four-parameter regression using the software that came with the microplate reader.
# DDR2, sequence (Q16832 563-849): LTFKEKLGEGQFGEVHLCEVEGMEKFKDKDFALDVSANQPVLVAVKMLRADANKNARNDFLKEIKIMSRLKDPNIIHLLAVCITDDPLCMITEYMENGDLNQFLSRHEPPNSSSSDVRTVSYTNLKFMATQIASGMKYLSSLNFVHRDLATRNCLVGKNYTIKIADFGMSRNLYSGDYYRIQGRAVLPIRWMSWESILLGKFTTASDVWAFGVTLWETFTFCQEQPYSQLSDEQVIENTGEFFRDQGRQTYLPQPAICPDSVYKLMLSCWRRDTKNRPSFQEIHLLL
row,Structure (SMILES),IC50
1,Cc1ccc([C@@H](C)NC(=O)c2cccc(C(F)(F)F)c2)cc1-c1ccc2nc(Nc3cnn(C4CC4)c3)ncc2c1 [Compound S11-B],14.4 ± 2.1 nM

# Same assay, conditions: read-out: DDR2 IC50
row,Structure (SMILES),IC50
1,"Cc1ccc(NC(=O)Nc2cccc(C(F)(F)F)c2)cc1-c1ccc2nc(Nc3cnn(C)c3)ncc2c1 [Compound S1, 1-(4-methyl-3-(2-((1-methyl-1H-pyrazol-4-yl)amino)quinazolin-6-yl)phenyl)-3-(3-(trifluoromethyl)phenyl)urea]",6.6 ± 0.4 nM
2,"Cn1cc(Nc2ncc3cc(-c4cc(C(=O)Nc5cccc(C(F)(F)F)c5)ccc4C4CC4)ccc3n2)cn1 [Compound S14, 4-cyclopropyl-3-(2-((1-methyl-1H-pyrazol-4-yl)amino)quinazolin-6-yl)-N-(3-(trifluoromethyl)phenyl)benzamide]",4.3 ± 0.7 nM
3,"CCC(NC(=O)c1cccc(C(F)(F)F)c1)c1ccc(C)c(-c2ccc3nc(Nc4cnn(C)c4)ncc3c2)c1 (stereo not shown) [Compound S6, N-(1-(4-methyl-3-(2-((1-methyl-1H-pyrazol-4-yl)amino)quinazolin-6-yl)phenyl)propyl)-3-(trifluoromethyl)benzamide]",5 ± 0.5 nM
4,"Cc1ccc(C(=O)NC(C)c2cccc(C(F)(F)F)c2)cc1-c1ccc2nc(Nc3cnn(C)c3)ncc2c1 (stereo not shown) [Compound S5, 4-Methyl-3-(2-((1-methyl-1H-pyrazol-4-yl)amino)quinazolin-6-yl)-N-(1-(3-(trifluoromethyl)phenyl)ethyl)benzamide]",2.9 ± 0.8 nM
5,"Cc1ccc(C(C)NC(=O)c2cccc(C(F)(F)F)c2)cc1-c1ccc2cnc(Nc3cnn(C)c3)nc2c1 (stereo not shown) [Compound S4, N-(1-(4-methyl-3-(2-((1-methyl-1H-pyrazol-4-yl)amino)quinazolin-7-yl)phenyl)ethyl)-3-(Trifluoromethyl)benzamide]",4.1 ± 0.1 nM
6,"Cc1ccc(C(C)NC(=O)c2cccc(C(C)(C)C#N)c2)cc1-c1ccc2nc(Nc3cnn(C4CC4)c3)ncc2c1 (stereo not shown) [Compound S20, 3-(2-cyanopropane-2-yl)-N-(1-(3-(2-((1-cyclopropyl-1H-pyrazol-4-yl)amino)quinazolin-6-yl)-4-methylphenyl)ethyl)benzamide]",5.6 ± 0.3 nM
7,"CC(C(=O)Nc1ccc(C2CC2)c(-c2ccc3nc(Nc4cnn(C5CC5)c4)ncc3c2)c1)c1cccc(C(F)(F)F)c1 (stereo not shown) [Compound S17, N-(4-cyclopropyl-3-(2-((1-cyclopropyl-1H-pyrazol-4-yl)amino)quinazolin-6-yl)phenyl)-2-(3-(trifluoromethyl)phenyl)propionamide]",1.7 ± 0.3 nM
8,"Cc1ccc(NC(=O)Nc2cc(C(C)(C)C)nn2-c2ccccc2)cc1-c1ccc2nc(Nc3cnn(C)c3)ncc2c1 [Compound S2, 1-(3-(tert-butyl)-1-phenyl-1H-pyrazol-5-yl)-3-(4-methyl-3-(2-((1-methyl-1H-pyrazol-4-yl)amino)quinazolin-6-yl)phenyl)urea]",9.7 ± 0.6 nM
9,"Cc1ccc(C(C)NC(=O)Nc2cccc(C(F)(F)F)c2)cc1-c1ccc2nc(Nc3cnn(C)c3)ncc2c1 (stereo not shown) [Compound S27, 1-(1-(4-methyl-3-(2-((1-methyl-1H-pyrazol-4-yl)amino)quinazolin-6-yl)phenyl)ethyl)-3-(3-(trifluoromethyl)phenyl)urea]",8.7 ± 1.1 nM
10,"Cc1ccc(C(C)C(=O)Nc2cccc(C(F)(F)F)c2)cc1-c1ccc2nc(Nc3cnn(C4CC4)c3)ncc2c1 (stereo not shown) [Compound S9, 2-(3-(2-((1-cyclopropyl-1H-pyrazol-4-yl)amino)quinazolin-6-yl)-4-methylphenyl)-N-(3-(trifluoromethyl)phenyl)propionamide]",2.7 ± 0.1 nM
11,"Cc1ccc(NC(=O)C(C)c2cccc(C(F)(F)F)c2)cc1-c1ccc2nc(Nc3cnn(C)c3)ncc2c1 (stereo not shown) [Compound S8, N-(4-methyl-3-(2-((1-methyl-1H-pyrazol-4-yl)amino)quinazolin-6-yl)phenyl)-2-(3-(trifluoromethyl)phenyl)propionamide]",2.2 ± 0.2 nM

# Same assay, conditions: read-out: DDR2 Inhibition rate at 0.1 μM
row,Structure (SMILES),inhibition at 0.1 µM
1,O=C(NC1CCc2c1cccc2C(F)(F)F)c1ccc(C2CC2)c(-c2ccc3nc(Nc4cnn(C5CC5)c4)ncc3c2)c1 (stereo not shown) [Compound S46],47.7%
